Results from ChEMBL document CHEMBL1201862, “PubChem BioAssay data set” (2004).
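Briefly, cells in 96-well plates were exposed to five compound concentrations for 48 h, and endpoints were estimated by linear interpolation. Here, GI50 denotes the concentration required for 50% inhibition of growth.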 Calls of active or inactive are those of the source. No stated cut-off is given here; in the data, active = GI50 up to about 1.1 µM and inactive = higher.

Key:
Assay in all cases: DTP human tumour cell line panel, 48 h
NCI-H522 = test system: NCI-H522
A498 = test system: A498
UO-31 = test system: UO-31
HOP-62 = test system: HOP-62
NCI-H460 = test system: NCI-H460
CAKI-1 = test system: CAKI-1
BT-549 = test system: BT-549
IGROV-1 = test system: IGROV-1
NCI-H23 = test system: NCI-H23
K562 = test system: K562
LOX IMVI = test system: LOX IMVI
MDA-N = test system: MDA-N
SF-295 = test system: SF-295
SK-OV-3 = test system: SK-OV-3
DU-145 = test system: DU-145
HOP-92 = test system: HOP-92
U-251 = test system: U-251
UACC-257 = test system: UACC-257
MOLT-4 = test system: MOLT-4
RPMI-8226 = test system: RPMI-8226
COLO 205 = test system: COLO 205
T47D = test system: T47D
786-0 = test system: 786-0
SF-268 = test system: SF-268
KM12 = test system: KM12
NCI/ADR-RES = test system: NCI/ADR-RES
NCI-H226 = test system: NCI-H226
MDA-MB-231 = test system: MDA-MB-231
UACC-62 = test system: UACC-62
Hs-578T = test system: Hs-578T
ACHN = test system: ACHN
SK-MEL-5 = test system: SK-MEL-5
OVCAR-8 = test system: OVCAR-8
SK-MEL-28 = test system: SK-MEL-28
A549 = test system: A549
SW-620 = test system: SW-620
PC-3 = test system: PC-3
EKVX = test system: EKVX
RXF 393 = test system: RXF 393
SNB-75 = test system: SNB-75
HT-29 = test system: HT-29
CCRF-CEM = test system: CCRF-CEM
MCF7 = test system: MCF7
HL-60 = test system: HL-60
SNB-19 = test system: SNB-19
M14 = test system: M14
HCT-15 = test system: HCT-15
OVCAR-5 = test system: OVCAR-5
SK-MEL-2 = test system: SK-MEL-2
Malme-3M = test system: Malme-3M
SN12C = test system: SN12C
OVCAR-4 = test system: OVCAR-4
OVCAR-3 = test system: OVCAR-3
MDA-MB-435 = test system: MDA-MB-435
HCC 2998 = test system: HCC 2998
SR = test system: SR
HCT-116 = test system: HCT-116
TK-10 = test system: TK-10
SF-539 = test system: SF-539

For CCCCc1ccc(Nc2nc3c(ncn3C3CC(O)C(CN=[N+]=[N-])O3)c(=O)[nH]2)cc1 (centres undefined), the GI50 (NCI-H522) was > 100 µM (inactive), the GI50 (A498) was > 100 µM (inactive) and the GI50 (UO-31) was > 100 µM (inactive). The GI50 (HOP-62) was > 100 µM (inactive), the GI50 (NCI-H460) was > 100 µM (inactive) and the GI50 (CAKI-1) was > 100 µM (inactive). The GI50 (BT-549) was > 100 µM (inactive), the GI50 (IGROV-1) was > 100 µM (inactive) and the GI50 (NCI-H23) was > 100 µM (inactive). The GI50 (K562) was > 100 µM (inactive), the GI50 (LOX IMVI) was > 100 µM (inactive) and the GI50 (MDA-N) was > 100 µM (inactive). For the same compound, the GI50 (SF-295) was > 100 µM (inactive), the GI50 (SK-OV-3) was > 100 µM (inactive) and the GI50 (DU-145) was > 100 µM (inactive). For the same compound, the GI50 (HOP-92) was > 100 µM (inactive), the GI50 (U-251) was > 100 µM (inactive) and the GI50 (UACC-257) was > 100 µM (inactive). The GI50 (MOLT-4) was > 100 µM (inactive), the GI50 (RPMI-8226) was > 100 µM (inactive) and the GI50 (COLO 205) was > 100 µM (inactive). For the same compound, the GI50 (T47D) was 54.7 µM (inactive), the GI50 (786-0) was > 100 µM (inactive) and the GI50 (SF-268) was > 100 µM (inactive). For the same compound, the GI50 (KM12) was > 100 µM (inactive), the GI50 (NCI/ADR-RES) was > 100 µM (inactive) and the GI50 (NCI-H226) was > 100 µM (inactive). For the same compound, the GI50 (MDA-MB-231) was > 100 µM (inactive), the GI50 (UACC-62) was > 100 µM (inactive) and the GI50 (Hs-578T) was > 100 µM (inactive). For the same compound, the GI50 (ACHN) was > 100 µM (inactive), the GI50 (SK-MEL-5) was > 100 µM (inactive) and the GI50 (OVCAR-8) was > 100 µM (inactive). The GI50 (SK-MEL-28) was > 100 µM (inactive), the GI50 (A549) was > 100 µM (inactive) and the GI50 (SW-620) was > 100 µM (inactive). The GI50 (PC-3) was > 100 µM (inactive), the GI50 (EKVX) was > 100 µM (inactive) and the GI50 (RXF 393) was > 100 µM (inactive). The GI50 (SNB-75) was > 100 µM (inactive), the GI50 (HT-29) was > 100 µM (inactive) and the GI50 (CCRF-CEM) was > 100 µM (inactive). For the same compound, the GI50 (MCF7) was > 100 µM (inactive), the GI50 (HL-60) was > 100 µM (inactive) and the GI50 (SNB-19) was > 100 µM (inactive). The GI50 (M14) was > 100 µM (inactive), the GI50 (HCT-15) was greater than 100 µM and the GI50 (OVCAR-5) was > 100 µM (inactive). For the same compound, the GI50 (SK-MEL-2) was > 100 µM (inactive), the GI50 (Malme-3M) was > 100 µM (inactive) and the GI50 (SN12C) was > 100 µM (inactive). The GI50 (OVCAR-4) was > 100 µM (inactive), the GI50 (OVCAR-3) was > 100 µM (inactive) and the GI50 (MDA-MB-435) was > 100 µM (inactive). The GI50 (HCC 2998) was > 100 µM (inactive), the GI50 (SR) was > 100 µM (inactive) and the GI50 (HCT-116) was > 100 µM (inactive).
With CCCc1[nH]nc(C(N)=O)c1/N=N/N(C)C the GI50 (NCI-H522) was 17.8 µM (inactive), the GI50 (A498) was 71.6 µM (inactive) and the GI50 (UO-31) was 1.16 µM (inactive). The GI50 (HOP-62) was 58.7 µM (inactive), the GI50 (CAKI-1) was 28.4 µM (inactive) and the GI50 (BT-549) was 24.3 µM (inactive). For the same compound, the GI50 (IGROV-1) was 28.5 µM (inactive), the GI50 (NCI-H23) was 75.3 µM (inactive) and the GI50 (K562) was 2.56 µM (inactive). For the same compound, the GI50 (LOX IMVI) was 47 µM (inactive), the GI50 (MDA-N) was > 100 µM (inactive) and the GI50 (SF-295) was 57.9 µM (inactive). For the same compound, the GI50 (SK-OV-3) was 59.7 µM (inactive), the GI50 (DU-145) was 49.5 µM (inactive) and the GI50 (HOP-92) was 33.3 µM (inactive). For the same compound, the GI50 (U-251) was 55.8 µM (inactive), the GI50 (UACC-257) was > 100 µM (inactive) and the GI50 (MOLT-4) was 15 µM (inactive). For the same compound, the GI50 (RPMI-8226) was 39.4 µM (inactive), the GI50 (COLO 205) was 63.2 µM (inactive) and the GI50 (T47D) was 54 µM (inactive). The GI50 (786-0) was 65.5 µM (inactive), the GI50 (SF-268) was 36.9 µM (inactive) and the GI50 (KM12) was 37.1 µM (inactive). The GI50 (NCI/ADR-RES) was 91 µM (inactive), the GI50 (NCI-H226) was 38.9 µM (inactive) and the GI50 (MDA-MB-231) was > 100 µM (inactive). The GI50 (UACC-62) was 36.9 µM (inactive), the GI50 (Hs-578T) was 50 µM (inactive) and the GI50 (ACHN) was 44.2 µM (inactive). For the same compound, the GI50 (SK-MEL-5) was 50.1 µM (inactive), the GI50 (OVCAR-8) was 76.2 µM (inactive) and the GI50 (SK-MEL-28) was > 100 µM (inactive). For the same compound, the GI50 (A549) was 42.4 µM (inactive), the GI50 (SW-620) was 63.7 µM (inactive) and the GI50 (PC-3) was > 100 µM (inactive). The GI50 (EKVX) was 26.3 µM (inactive), the GI50 (RXF 393) was 41.5 µM (inactive) and the GI50 (SNB-75) was 16.1 µM (inactive). For the same compound, the GI50 (TK-10) was 67.5 µM (inactive), the GI50 (HT-29) was 86.3 µM (inactive) and the GI50 (CCRF-CEM) was 27 µM (inactive). The GI50 (MCF7) was 20.1 µM (inactive), the GI50 (HL-60) was 8.34 µM (inactive) and the GI50 (SF-539) was 48.4 µM (inactive). For the same compound, the GI50 (SNB-19) was > 100 µM (inactive), the GI50 (M14) was > 100 µM (inactive) and the GI50 (HCT-15) was 50.4 µM. The GI50 (SK-MEL-2) was > 100 µM (inactive), the GI50 (Malme-3M) was 98.2 µM (inactive) and the GI50 (SN12C) was 48.3 µM (inactive). For the same compound, the GI50 (OVCAR-4) was 54.1 µM (inactive), the GI50 (OVCAR-3) was > 100 µM (inactive) and the GI50 (MDA-MB-435) was > 100 µM (inactive). For the same compound, the GI50 (HCC 2998) was > 100 µM (inactive), the GI50 (SR) was 10.5 µM (inactive) and the GI50 (HCT-116) was 51.9 µM (inactive).
